This is an account of results in patent publication EP1137632B1, “THIOUREA INHIBITORS OF HERPES VIRUSES” (Wyeth, priority 1998, dated 2000).

Converted amounts (≈) assume the structure as drawn. Like-named read-outs stand apart in the source and are kept apart here.

Assay [1] relates to HCMV recombinant mutant virus. As to the kind of experiment: microbe, parasite or virus in culture. Particulars: Human betaherpesvirus 5, read-out: IC50 (ug/ml) HCMV. It is filed as cell-based, human cytomegalovirus. The text has this:
Microtiter plate assay. Ninety-six well plate cultures of human foreskin fibroblasts are infected in the presence of inhibitor compound with a HCMV recombinant mutant virus whose genome contains the prokaryotic beta-glucuronidase gene (Jefferson, R. A., S. M. Burgess, and D. Hirsh. 1986. Beta-glucuronidase from Escherichia coli as a gene fusion marker. Proc. Natl. Acad. Sci. USA 83:8447-8451) whose expression is controlled by a viral promoter. An example of such a virus is RV145 (Jones, T. R., V. P. Muzithras, and Y. Gluzman. 1991. Replacement mutagenesis of the human cytomegalovirus genome: US10 and US11 gene products are nonessential. J. Virol. 65:5860-5872). Since it is under the control of a viral promoter, beta-glucuronidase expression is an indirect indicator of growth and replication of HCMV in this assay. At 96 hours post-infection, the infected cell lysates are prepared (using 50mM sodium phosphate [pH7.0] containing 0.1 % Triton X-100 and 0.1% sarkosyl) and assayed for beta-glucuronidase activity using a substrate for the enzyme which when cleaved yields either a product which can be measured colorimetrically in a spectrophotometer or fluorescently in a microfluorimeter. Examples of such substrates are p-nitrophenyl-beta-D-glucuronide and methylumbelliferylglucuronide, respectively. The presence of an antiviral compound is indicated by the reduced expression of the HCMV genome resident beta-glucuronidase gene, compared to the absence of inhibitor. […] Data from this assay generated using varying amounts of inhibitor compound is also used to estimate the IC50 of an inhibitor compound.

For assay [2], the system named is HSV-1. Nature of the assay: HSV antiviral (ELISA) assay in Vero cells. To be noted: read-out: IC50 (ug/ml) HSV. It is filed as cell-based, herpes simplex virus type 1. How it is done:
HSV antiviral (ELISA) assay
Vero cells (ATCC #CCL-81) are plated on 96-well tissue culture plates at 3.5x10^4 cells per 100µl tissue culture DMEM (Dulbecco's modified Eagle media) supplemented with 2% fetal bovine serum (FBS) in each well. After overnight incubation @ 37°C (in 5% CO2) and 30 minutes prior to infection with HSV-1 (multiplicity of infection equal to 0.006), cells are either untreated, or treated with test compound (multiple concentrations) or reference standard drug control. After approximately 24 hours post-infection incubation @ 37°C (in 5% CO2), cells are fixed for ELISA assay. The primary antibody is murine anti-HSV glycoprotein D monoclonal primary antibody and the secondary antibody is goat anti-mouse IgG linked to β-galactosidase. Thus the extent of viral replication is determined by assessing β-galactosidase activity by quantifying the generation of the 4-methyl umbelliferone fluorescent cleavage product after addition of the methyl umbelliferyl-β-D-galactoside (Sigma #M1633) substrate on a microfluorimeter (365nm for excitation and 450nm for emission). Antiviral activity (IC50) of the test compound is determined by comparing the flourescence obtained in absence of compound to that obtained in the presence of compound.
In general terms: ELISA stands for enzyme-linked immunosorbent assay.

The test system of assay [3] is VZV strain Ellen. As to the kind of experiment: VZV antiviral (ELISA) assay in human foreskin fibroblast cells. Format: cell-based, varicella-zoster virus. How it is done:
VZV antiviral (ELISA) assay
For the generation of stock VZV to be used in the assay, VZV strain Ellen (ATCC #VR-1367) is used to infect human foreskin fibroblast (HFF) cells at low multiplicity (less than 0.1) and incubated overnight at 37°C in 5% CO2. After the overnight incubation, the mixture of uninfected and VZV-infected HFF infected cells are then harvested and added to each well of 96-well plates (3.5x10^4 cells in 100 µl DMEM supplemented with 2% FBS) which contain test compound or the reference standard drug control (in 100µl DMEM supplemented with 2% FBS per well). These cells are incubated for three days at 37°C in 5% CO2, then fixed for ELISA assay. The primary antibody is murine anti-VZV glycoprotein II monoclonal antibody (Applied Biosystems, Inc. #13-145-100) and the secondary antibody is goat anti-mouse IgG linked to β-galactosidase. Thus the extent of viral replication is determined by assessing β-galactosidase activity by quantifying the generation of the 4-methyl umbelliferone fluorescent cleavage product after addition of the methyl umbelliferyl-β-D-galactoside (Sigma #M1633) substrate on a microfluorimeter (365nm for excitation and 450nm for emission). Antiviral activity (IC50) of the test compound is determined by comparing the flourescence obtained in absence of compound to that obtained in the presence of compound.

The mark [4] stands for this setting: Human alphaherpesvirus 1, HSV-1 in Vero cells.
The mark [5] stands for this setting: Human alphaherpesvirus 3, Fibroblast; read-out: % inhibition 10 ug/ml VZV.
Setting [6] is: Human alphaherpesvirus 3; VZV strain Ellen in HFF cells; read-out: IC50 (ug/ml) VZV.

Turning to `COc1cc(OC)c(NC(=S)Nc2cc(OC)c(NC(=O)c3ccccc3F)cc2C)cc1Cl` [Example 286, N-{4-[3-(5-Chloro-2,4-dimethoxy-phenyl)-thioureido]-2-methoxy-5-methyl-phenyl}-2-fluoro-benzamide], the IC50 in assay [1] was 40 µg/mL (≈ 79.4 µM); in assay [2] (setting [4]), 2 µg/mL (≈ 3.97 µM); in assay [3] (setting [6]) it was over 10 µg/mL. The inhibition at 10 µg/mL in assay [3] (setting [5]) is 5%.

Regarding `CCOc1cc(NC(=S)NC(C)c2ccc(C#N)cc2)ccc1NC(=O)c1ccccc1F` (stereo not drawn) [Example 1061, N-(4-{3-[1-(4-Cyano-phenyl)-ethyl]-thioureido}-2-ethoxy-phenyl)-2-fluoro-benzamide], the IC50 in assay [1] is 7.6 µg/mL (≈ 16.4 µM); in assay [2] (setting [4]), over 10 µg/mL; in assay [3] (setting [6]) it was 0.64 µg/mL (≈ 1.38 µM).

With `COc1cc(OC)c(NC(=S)Nc2ccc(NC(=O)c3ccccc3F)c(C(=O)Nc3ccccc3)c2)cc1Cl` [Example 301, 5-[[[(5-Chloro-2,4-dimethoxyphenyl)amino]thioxomethyl]amino]-2-[(2-fluorobenzoyl)amino]-N-phenyl-benzamide], the values for the IC50 in assay [1], in assay [2] (setting [4]) and in assay [3] (setting [6]) were over 10 µg/mL, 10 µg/mL (≈ 17.3 µM) and over 10 µg/mL, respectively. Further, the inhibition at 10 µg/mL in assay [3] (setting [5]) worked out at 10%.

With `CC(NC(=S)Nc1ccc(NC(=O)c2ccccc2F)c(C#N)c1)c1cc2ccccc2o1` (stereo not drawn) [Example 1043, N-{4-[3-(1-Benzofuran-2-yl-ethyl)-thioureido]-2-cyano-phenyl)-2-fluoro-benzamide], the results for the IC50 in assay [1], in assay [2] (setting [4]) and in assay [3] (setting [6]) were over 10 µg/mL, over 10 µg/mL and 0.099 µg/mL (≈ 0.216 µM), respectively.

With `Cc1cc(NC(=S)NC(C)c2ccc(F)cc2)ccc1NC(=O)c1nccc2ccccc12` (stereo not drawn) [Example 1072, Isoquinoline-1-carboxylic acid (4-{3-[1-(4-fluoro-phenyl)-ethyl]-thioureido}-2-methyl-phenyl)-amide], the IC50 was over 10 µg/mL in assay [1], over 10 µg/mL in assay [2] (setting [4]) and 0.027 µg/mL (≈ 0.0589 µM) in assay [3] (setting [6]).

For the molecule `CC(=O)Nc1ccc(NC(=S)Nc2ccc(NC(=O)c3ccc4ccccc4c3O)c(Cl)c2)cc1` [Example 204, 1-Hydroxy-naphthalene-2-carboxylic acid {4-[3-(4-acetylamino-phenyl)-thioureido]-2-chloro-phenyl}-amide], the figures for the IC50 in assay [1], in assay [2] (setting [4]) and in assay [3] (setting [6]) were 8 µg/mL (≈ 15.8 µM), 4 µg/mL (≈ 7.92 µM) and over 10 µg/mL, respectively. For the same molecule, in assay [3] (setting [5]), the inhibition at 10 µg/mL was 41%.

As for `COc1cc(OC)c(NC(=S)Nc2ccc(NC(=O)c3ccccc3F)c(C(=O)O)c2)cc1Cl` [Example 338, 5-[3-(5-Chloro-2,4-dimethoxy-phenyl)-thioureido]-2-(2-fluoro-benzoylamino)-benzoic acid], the IC50 in assay [1] was 35 µg/mL (≈ 69.5 µM); in assay [2] (Human alphaherpesvirus 1, Vero), over 50 µg/mL; in assay [3] (Human alphaherpesvirus 3, HFF, read-out: IC50 (ug/ml) VZV) it was over 10 µg/mL. In addition, the inhibition at 10 µg/mL in assay [3] (Human alphaherpesvirus 3, Fibroblast, read-out: % inhibition 10 ug/ml VZV) was found to be 13%.

Take `COc1cc(OC)c(NC(=S)Nc2ccc(NC(=O)c3ccccc3F)c(C)c2)cc1Cl` [Example 310, N-{4-[3-(5-Chloro-2,4-dimethoxy-phenyl)-thioureido]-2-methyl-phenyl}-2-fluoro-benzamide]: the IC50 in assay [1] was over 10 µg/mL; in assay [2] (setting [4]) it was 2 µg/mL (≈ 4.22 µM); in assay [3] (setting [6]), over 10 µg/mL. For the same molecule, in assay [3] (setting [5]), the inhibition at 10 µg/mL came out at 40%.

Regarding `CC(NC(=S)Nc1ccc(NC(=O)c2ccccc2F)c(OCc2ccccc2)c1)c1ccc(C#N)cc1` (stereo not drawn) [Example 1050, N-(2-Benzyloxy-4-{3-[1-(4-cyano-phenyl)-ethyl]-thioureido}-phenyl)-2-fluoro-benzamide], the IC50 in assay [1] was over 10 µg/mL; in assay [2] (setting [4]), over 10 µg/mL; in assay [3] (setting [6]) it was over 7.5 µg/mL.

With `COc1cc(OC)c(NC(=S)Nc2ccc(NC(=O)c3ccccc3F)c3ccccc23)cc1Cl` [Example 325, N-{4-[3-(5-Chloro-2,4-dimethoxy-phenyl)-thioureido]-naphthalen-1-yl}-2-fluoro-benzamide], the figures for the IC50 in assay [1], in assay [2] (setting [4]) and in assay [3] (setting [6]) were over 10 µg/mL, 1 µg/mL (≈ 1.96 µM) and over 10 µg/mL, respectively. Besides, the inhibition at 10 µg/mL in assay [3] (setting [5]) stood at 33%.

`Cc1c(C)c(NC(=S)NC(C)c2ccc(F)cc2)c(C)c(C)c1NC(=O)c1ccccc1F` (stereo not drawn) [Example 1023, 2-Fluoro-N-(4-{3-[1-(4-fluoro-phenyl)-ethyl]-thioureido}-2,3,5,6-tetramethyl-phenyl)-benzamide]: the IC50 in assay [1] was 9 µg/mL (≈ 19.2 µM); in assay [2] (setting [4]), over 10 µg/mL; in assay [3] (setting [6]) it was 10 µg/mL (≈ 21.4 µM).

Consider `CC(NC(=S)Nc1ccc(NC(=O)c2ccccc2F)c(Cl)c1)c1ccc(C#N)cc1` (stereo not drawn) [Example 1039, N-(2-Chloro-4-{3-[1-(4-cyano-phenyl)-ethyl]-thioureido}-phenyl)-2-fluoro-benzamide], for which the IC50 in assay [1] was 1.3 µg/mL (≈ 2.87 µM); in assay [2] (setting [4]) it was 7.2 µg/mL (≈ 15.9 µM); in assay [3] (setting [6]), 0.25 µg/mL (≈ 0.552 µM).

Regarding `CC(NC(=S)Nc1ccc(NC(=O)c2ccccc2F)c(C(F)(F)F)c1)c1cc2ccccc2o1` (stereo not drawn) [Example 1037, N-{4-[3-(1-Benzofuran-2-yl-ethyl)-thioureido]-2-trifluoromethyl-phenyl}-2-fluoro-benzamide], the IC50 came out at 2 µg/mL (≈ 3.99 µM) in assay [1], 3.6 µg/mL (≈ 7.18 µM) in assay [2] (setting [4]) and 0.027 µg/mL (≈ 0.0538 µM) in assay [3] (setting [6]).

In the case of `COc1cc(NC(=O)c2ccccc2F)ccc1NC(=S)Nc1ccc(SC)c(Cl)c1` [Example 420, N-{4-[3-(3-Chloro-4-methylsulfanyl-phenyl)-thioureido]-3-methoxy-phenyl}-2-fluoro-benzamide], the IC50 in assay [1] is 7 µg/mL (≈ 14.7 µM); in assay [2] (setting [4]), 0.2 µg/mL (≈ 0.42 µM); in assay [3] (setting [6]), over 10 µg/mL. In assay [3] (setting [5]), the inhibition at 10 µg/mL was determined as 34%.

For `CC(NC(=S)Nc1ccc(NC(=O)c2ccccc2F)c(Cl)c1)c1ccc(F)cc1` (stereo not drawn) [Example 1038, N-(2-Chloro-4-{3-[1-(4-fluoro-phenyl)-ethyl]-thioureido}-phenyl)-2-fluoro-benzamide], the IC50 in assay [1] worked out at 3.5 µg/mL (≈ 7.85 µM); in assay [2] (setting [4]), 3 µg/mL (≈ 6.73 µM); in assay [3] (setting [6]), 0.04 µg/mL (≈ 0.0897 µM).

With `CC(=O)Nc1ccc(NC(=S)Nc2ccc(NC(=O)c3ccccc3)c(Cl)c2)cc1` [Example 400, N-{4-[3-(4-Acetylamino-phenyl)-thioureido]-2-chloro-phenyl}-benzamide], the IC50 in assay [1], in assay [2] (setting [4]) and in assay [3] (setting [6]) was over 10 µg/mL each time. Besides, the inhibition at 10 µg/mL in assay [3] (setting [5]) is 15%.

As for `CC(NC(=S)Nc1ccc(NC(=O)c2ccccc2F)c(C#N)c1)c1ccc(F)cc1` (stereo not drawn) [Example 1040, N-(2-Cyano-4-{3-[1-(4-fluoro-phenyl)-ethyl]-thioureido}-phenyl)-2-fluoro-benzamide], the figures for the IC50 in assay [1], in assay [2] (setting [4]) and in assay [3] (setting [6]) were over 10 µg/mL, over 10 µg/mL and 0.05 µg/mL (≈ 0.115 µM), respectively.

As to `COc1cc(OC)c(NC(=S)Nc2ccc(NC(=O)c3ccccc3F)cc2C)cc1Cl` [Example 295, N-{4-[3-(5-Chloro-2,4-dimethoxy-phenyl)-thioureido]-3-methyl-phenyl}-2-fluoro-benzamide], the IC50 in assay [1] was over 10 µg/mL; in assay [2] (setting [4]), 0.15 µg/mL (≈ 0.316 µM); in assay [3] (setting [6]), over 10 µg/mL. In addition, in assay [3] (setting [5]), the inhibition at 10 µg/mL worked out at 20%.
